# From the Kinase Knowledgebase extract (Sharma et al. 2016)
# Target: PIK3CB;PIK3CG;PIK3CD;PIK3CA (human) (UniProt P48736)
# Experiment: Enzyme Assay
row,SMILES,IC50
1,O=C(c1nn(-c2ccc(CNC3CCOCC3)cc2)c2c1CS(=O)(=O)c1ccccc1-2)N1CCOCC1,107 nM
2,O=C(c1nn(-c2cccc(CN3CCC(O)CC3)c2)c2c1CS(=O)(=O)c1ccccc1-2)N1CCOCC1,573 nM
3,O=C(c1cccc(-n2nc(C(=O)N3CCOCC3)c3c2-c2ccccc2S(=O)(=O)C3)c1)N1CCCC(CO)C1 (configuration not stated),502 nM
4,O=C(c1nn([C@H]2CCCN(CCC3CCOCC3)C2)c2c1CS(=O)(=O)c1ccccc1-2)N1CCOCC1,34 nM
5,O=C(c1nn(C2CCOCC2)c2c1CS(=O)(=O)c1c(F)cccc1-2)N1CCOCC1,1030 nM
6,O=C(c1nn([C@@H]2CCCN(CC3CCOCC3)C2)c2c1CS(=O)(=O)c1ncccc1-2)N1CCOCC1,830 nM
7,O=C(c1nn(-c2ccc(N3CCOCC3)cc2)c2c1CS(=O)(=O)c1ccccc1-2)N1CCOCC1,3940 nM
8,O=C(c1nn(C2CCCNC2)c2c1CS(=O)(=O)c1ccccc1-2)N1CCOCC1 (configuration not stated),3010 nM
9,O=C(c1nn(C2CCCCCC2)c2c1CS(=O)(=O)c1ccccc1-2)N1CCOCC1,469 nM
10,Cc1ccc(-n2nc(C(=O)N3CCOCC3)c3c2-c2ccccc2S(=O)(=O)C3)cc1,690 nM
11,Cc1nnc(-c2cccc(-n3nc(C(=O)N4CCOCC4)c4c3-c3ccccc3S(=O)(=O)C4)c2)o1,1200 nM
12,O=C(c1nn([C@H]2CCCN(CCC3CCOCC3)C2)c2c1CS(=O)(=O)c1ncccc1-2)N1CCOCC1,16 nM
13,O=C(c1nn(-c2ccccc2F)c2c1CS(=O)(=O)c1ccccc1-2)N1CCOCC1,2000 nM
14,COC1CN(CCN2CCC[C@H](n3nc(C(=O)N4CCOCC4)c4c3-c3ccccc3S(=O)(=O)C4)C2)C1,20 nM
15,O=C(c1nn(-c2cccc(CO)c2)c2c1CS(=O)(=O)c1ccccc1-2)N1CCOCC1,2250 nM
16,O=C(CC1CCCCC1)N1CCC[C@H](n2nc(C(=O)N3CCOCC3)c3c2-c2ccccc2S(=O)(=O)C3)C1,735 nM
17,COc1ccc(Cn2nc(C(=O)N3CCOCC3)c3c2-c2ccccc2S(=O)(=O)C3)cc1,459 nM
18,COc1ccc2c(c1)-c1c(c(C(=O)N3CCOCC3)nn1[C@H]1CCCN(CCN3CCOCC3)C1)CS2(=O)=O,28 nM
19,O=C(c1nn(CCCO)c2c1CS(=O)(=O)c1ccccc1-2)N1CCOCC1,2250 nM
20,COc1ccc2c(c1)S(=O)(=O)Cc1c(C(=O)N3CCOCC3)nn([C@H]3CCCN(C4CCCOC4)C3)c1-2 (some centres not stated),24 nM
21,O=C(c1nn(-c2ccccc2)c2c1CS(=O)(=O)c1c(Br)cccc1-2)N1CCOCC1,494 nM
22,O=C(c1nn(C2CCCN(CCCn3cccc3)C2)c2c1CS(=O)(=O)c1ccccc1-2)N1CCOCC1 (configuration not stated),90 nM

row,SMILES,IC50
1,CN(C)C(=O)c1ccc2c(c1)-c1c(c(C(=O)N3CCOCC3)nn1-c1ccccc1)CS2(=O)=O,3730 nM
2,O=C(c1nn(C2CCOC2)c2c1CS(=O)(=O)c1c(F)cccc1-2)N1CCOCC1 (configuration not stated),353 nM
3,O=C(c1cccc(-n2nc(C(=O)N3CCOCC3)c3c2-c2ccccc2S(=O)(=O)C3)c1)N1CCCCC1,182 nM
4,O=C(c1nn(C2CCOCC2)c2c1CS(=O)(=O)c1ccccc1-2)N1CCOCC1,223 nM
5,CS(=O)(=O)c1ccc(-n2nc(C(=O)N3CCOCC3)c3c2-c2ccccc2S(=O)(=O)C3)cc1,4520 nM
6,COCC(=O)N1CCC[C@H](n2nc(C(=O)N3CCOCC3)c3c2-c2ccccc2S(=O)(=O)C3)C1,261 nM
7,O=C(c1nn(-c2ccc(CN3CCCC(F)(F)C3)cc2)c2c1CS(=O)(=O)c1ccccc1-2)N1CCOCC1,355 nM
8,CC1CN(Cc2ccc(-n3nc(C(=O)N4CCOCC4)c4c3-c3ccccc3S(=O)(=O)C4)cc2)CC(C)O1 (configuration not stated),57 nM
9,O=C(c1nn(Cc2nc3ccccc3s2)c2c1CS(=O)(=O)c1ccccc1-2)N1CCOCC1,1490 nM
10,O=C(c1cccc(-n2nc(C(=O)N3CCOCC3)c3c2-c2ccccc2S(=O)(=O)C3)c1)N1CCC(O)CC1,371 nM
11,CC1COCCN1CCN1CCC[C@H](n2nc(C(=O)N3CCOCC3)c3c2-c2ccccc2S(=O)(=O)C3)C1 (some centres not stated),101 nM
12,O=C(c1nn([C@@H]2CCCN(CCn3ccnc3)C2)c2c1CS(=O)(=O)c1ccccc1-2)N1CCOCC1,444 nM
13,O=C(c1nn(-c2cccnc2)c2c1CS(=O)(=O)c1ccccc1-2)N1CCOCC1,1130 nM
14,Cc1nc(-c2cccc(-n3nc(C(=O)N4CCOCC4)c4c3-c3ccccc3S(=O)(=O)C4)c2)n[nH]1,4860 nM
15,O=C(c1nn(C2CCCOC2)c2c1CS(=O)(=O)c1ccccc1-2)N1CCOCC1 (configuration not stated),326 nM
16,O=C(c1nn([C@H]2CCCN(CCN3CCC(F)CC3)C2)c2c1CS(=O)(=O)c1ccccc1-2)N1CCOCC1,25 nM
17,COc1ccc(-n2nc(C(=O)N3CCOCC3)c3c2-c2ccccc2S(=O)(=O)C3)cn1,2200 nM
18,O=C(c1nn(-c2ccccc2Cl)c2c1CS(=O)(=O)c1ccccc1-2)N1CCOCC1,4020 nM
19,O=C(Nc1cccc(-n2nc(C(=O)N3CCOCC3)c3c2-c2ccccc2S(=O)(=O)C3)c1)N1CCOCC1,3590 nM
20,O=C(c1nn(-c2ccccc2)c2c1CS(=O)(=O)c1cc(C(F)(F)F)ccc1-2)N1CCOCC1,3060 nM
21,O=C(Nc1cccnc1)c1cccc(-n2nc(C(=O)N3CCOCC3)c3c2-c2ccccc2S(=O)(=O)C3)c1,926 nM
22,CN1CCN(C(=O)c2cccc(-n3nc(C(=O)N4CCOCC4)c4c3-c3ccccc3S(=O)(=O)C4)c2)CC1,253 nM

row,SMILES,IC50
1,O=C(c1nn(-c2ccc(CNC3CCOC3)cc2)c2c1CS(=O)(=O)c1ccccc1-2)N1CCOCC1 (configuration not stated),156 nM
2,O=C(c1nn(C2CCCCC2)c2c1CS(=O)(=O)c1ccsc1-2)N1CCOCC1,212 nM
3,O=C(c1nn(C2CCCN(C3COC3)C2)c2c1CS(=O)(=O)c1ccccc1-2)N1CCOCC1 (configuration not stated),67 nM
4,O=C(c1nn(-c2ccc(CN3CCC(O)C3)cc2)c2c1CS(=O)(=O)c1ccccc1-2)N1CCOCC1 (configuration not stated),859 nM
5,CS(=O)(=O)N1CCCC(n2nc(C(=O)N3CCOCC3)c3c2-c2ccccc2S(=O)(=O)C3)C1 (configuration not stated),994 nM
6,O=C(c1nn(C2CCN(CCC3CCOCC3)C2)c2c1CS(=O)(=O)c1c(F)cccc1-2)N1CCOCC1 (configuration not stated),21 nM
7,COCCCN1CCCC(n2nc(C(=O)N3CCOCC3)c3c2-c2ccccc2S(=O)(=O)C3)CC1 (configuration not stated),438 nM
8,O=C(c1nn(-c2cccc(Br)c2)c2c1CS(=O)(=O)c1ccccc1-2)N1CCOCC1,616 nM
9,O=C(c1nn(C2CN3CCC2CC3)c2c1CS(=O)(=O)c1ccccc1-2)N1CCOCC1 (configuration not stated),10200 nM
10,O=C(c1nn(-c2ccc(CN3CCC(F)CC3)nc2)c2c1CS(=O)(=O)c1ccccc1-2)N1CCOCC1,1200 nM
11,O=C(c1nn(C2CCN(CCn3cccn3)C2)c2c1CS(=O)(=O)c1ccccc1-2)N1CCOCC1 (configuration not stated),257 nM
12,O=C(CC1CCOCC1)N1CCC[C@H](n2nc(C(=O)N3CCOCC3)c3c2-c2ccccc2S(=O)(=O)C3)C1,345 nM
13,O=C(c1nn(-c2cccc(CN3CCC(F)(F)CC3)c2)c2c1CS(=O)(=O)c1ccccc1-2)N1CCOCC1,560 nM
14,O=C(c1ccoc1)N1CCC[C@H](n2nc(C(=O)N3CCOCC3)c3c2-c2ccccc2S(=O)(=O)C3)C1,750 nM
15,CCc1nc(-c2cccc(-n3nc(C(=O)N4CCOCC4)c4c3-c3ccccc3S(=O)(=O)C4)c2)no1,2590 nM
16,O=C(c1nn(C2CCN(CC3CCOC3)C2)c2c1CS(=O)(=O)c1ccccc1-2)N1CCOCC1 (configuration not stated),353 nM
17,Cc1nc(CN2CCCC(n3nc(C(=O)N4CCOCC4)c4c3-c3ccccc3S(=O)(=O)C4)C2)no1 (configuration not stated),134 nM
18,O=C(c1nn([C@H]2CCN(C3CCOCC3)C2)c2c1CS(=O)(=O)c1c(F)cccc1-2)N1CCOCC1,52 nM
19,CC(=O)Nc1cccc2c1S(=O)(=O)Cc1c(C(=O)N3CCOCC3)nn(-c3ccccc3)c1-2,9880 nM
20,COc1ccc2c(c1)S(=O)(=O)Cc1c(C(=O)N3CCOCC3)nn([C@H]3CCCN(CCC4CCOCC4)C3)c1-2,27 nM
21,O=C(c1nn([C@H]2CCCN(C3CCOCC3)C2)c2c1CS(=O)(=O)c1ccccc1-2)N1CCOCC1,80 nM
22,O=C(c1nn([C@@H]2CCCN(CCC3CCOCC3)C2)c2c1CS(=O)(=O)c1ccccc1-2)N1CCOCC1,2200 nM

row,SMILES,IC50
1,O=C(c1nn(-c2cccc(-c3ncon3)c2)c2c1CS(=O)(=O)c1ccccc1-2)N1CCOCC1,6690 nM
2,O=C(c1nn([C@@H]2CCCNC2)c2c1CS(=O)(=O)c1ccccc1-2)N1CCOCC1,3000 nM
3,O=C(c1nn([C@H]2CCCN(CCN3CC[C@H](F)C3)C2)c2c1CS(=O)(=O)c1ccccc1-2)N1CCOCC1,14 nM
4,O=C(c1nn(C2CCN(CCC3CCOCC3)CC2)c2c1CS(=O)(=O)c1ccccc1-2)N1CCOCC1,692 nM
5,CC(C)c1ccc(-n2nc(C(=O)N3CCOCC3)c3c2-c2ccccc2S(=O)(=O)C3)cc1,1470 nM
6,O=C(c1nn(C2CCN(C3CCOCC3)C2)c2c1CS(=O)(=O)c1ccccc1-2)N1CCOCC1 (configuration not stated),77 nM
7,O=C(c1nn(-c2cccc(Nc3ccccc3)c2)c2c1CS(=O)(=O)c1ccccc1-2)N1CCOCC1,2700 nM
8,CN1CCC(N2CCC[C@H](n3nc(C(=O)N4CCOCC4)c4c3-c3ccccc3S(=O)(=O)C4)C2)CC1,28 nM
9,CN(C)CC(C)(C)c1ccc(-n2nc(C(=O)N3CCOCC3)c3c2-c2ccccc2S(=O)(=O)C3)cc1,159 nM
10,CCCCn1nc(C(=O)N2CCOCC2)c2c1-c1ccccc1S(=O)(=O)C2,377 nM
11,O=C(c1nn(C2CCCN(CCN3CC(F)(F)C3)C2)c2c1CS(=O)(=O)c1ccccc1-2)N1CCOCC1 (configuration not stated),36 nM
12,CC(=O)NCCN1CCC[C@H](n2nc(C(=O)N3CCOCC3)c3c2-c2ccccc2S(=O)(=O)C3)C1,105 nM
13,O=C(c1nn(Cc2cnccn2)c2c1CS(=O)(=O)c1ccccc1-2)N1CCOCC1,10700 nM
14,O=C(c1nn([C@H]2CCCN(C3CCCOC3)C2)c2c1CS(=O)(=O)c1c(F)cccc1-2)N1CCOCC1 (some centres not stated),25 nM
15,O=C(c1nn(C2CCN(CCN3CCOCC3)CC2)c2c1CS(=O)(=O)c1ccccc1-2)N1CCOCC1,369 nM
16,CC(=O)Nc1nc2c(s1)S(=O)(=O)Cc1c(C(=O)N3CCOCC3)nn(C3CCOCC3)c1-2,284 nM
17,Cn1nc(C(=O)N2CCOCC2)c2c1-c1cc(Br)ccc1S(=O)(=O)C2,1040 nM
18,O=C(c1nn(-c2cccc(CN3CCC(F)CC3)c2)c2c1CS(=O)(=O)c1ccccc1-2)N1CCOCC1,437 nM
19,O=C(c1nn(C2CCCCC2)c2c1CS(=O)(=O)c1ccccc1-2)N1CCOCC1,136 nM
20,N#Cc1cccc(-n2nc(C(=O)N3CCOCC3)c3c2-c2ccccc2S(=O)(=O)C3)c1,376 nM
21,COc1cccc2c1S(=O)(=O)Cc1c(C(=O)N3CCOCC3)nn(C)c1-2,1730 nM
